Laboratory results taken from patent US20250197864A1, “LNCRNA TRANSCRIPTS IN MELANOMAGENESIS” (The Regents of the University of California, priority 2021, published 2025).

Tests used:
Test in all cases: Cell viability assay (ATP quantitation)
MM415 melanoma cell line = type: cell-based, human; conditions: 50 nM, 5 days (120 hrs), vs non-targeting control
Method: (§1) EsiRNA, siRNA and ASO GapmeRs were transfected in a final concentration of 50 nM unless mentioned otherwise and the transfection reagent Lipofectamine 3000 (2 ul/ml) was added according to the manufacturer's instructions.
(§2) Dependent on cell doubling time, 0.7-2×10^^3 cells were seeded in 96 well plates. 1 day after seeding cells were incubated in media with oligonucleotide concentration and/or MEKi and transfection reagent. 3 (synergy experiments) or 5 (solely ASO) days after transfection Total luminescence was measured on the SynergyHT plate reader (BioTek) using Gen5 software.

[1] = test system: WM3211 melanoma cell line; type: cell-based, human; conditions: 50 nM, 5 days (120 hrs), vs non-targeting control
Method: as §1, §2

[2] = test system: Sk-Mel-28 melanoma cell line; type: cell-based, human; conditions: 50 nM, 5 days (120 hrs), vs non-targeting control
Method: as §1, §2

[3] = test system: WM3629 melanoma cell line; type: cell-based, human; conditions: 50 nM, 5 days (120 hrs), vs non-targeting control
Method: as §1, §2

[4] = test system: Sk-Mel-2 melanoma cell line; type: cell-based, human; conditions: 50 nM, 5 days (120 hrs), vs non-targeting control
Method: as §1, §2

VMM39 melanoma cell line = type: cell-based, human; conditions: 50 nM, 5 days (120 hrs), vs non-targeting control
Method: as §1, §2

[5] = test system: Hs852.T primary melanoma cell line; type: cell-based, human; conditions: 50 nM, 5 days (120 hrs), vs non-targeting control
Method: as §1, §2

D04 melanoma cell line = type: cell-based, human; conditions: 50 nM, 5 days (120 hrs), vs non-targeting control
Method: as §1, §2

[6] = test system: WM1366 melanoma cell line; type: cell-based, human; conditions: 50 nM, 5 days (120 hrs), vs non-targeting control
Method: as §1, §2

[7] = test system: HCT116 colon carcinoma cell line; type: cell-based; conditions: 50 nM, 5 days, vs non-targeting control
Method: as §1, §2

[8] = test system: A-172 Glioblastoma cell line; type: cell-based; conditions: 50 nM, 5 days, vs non-targeting control
Method: as §1, §2

[9] = test system: T98G Glioblastoma cell line; type: cell-based; conditions: 50 nM, 5 days, vs non-targeting control
Method: as §1, §2

[10] = test system: U20S osteosarcoma cell line; type: cell-based; conditions: 50 nM, 5 days, vs non-targeting control
Method: as §1, §2

[11] = test system: Sk-N-AS Neuroblastoma cell line; type: cell-based; conditions: 50 nM, 5 days, vs non-targeting control
Method: as §1, §2

[12] = test system: H929 multiple myeloma cell line; type: cell-based; conditions: 50 nM, 5 days, vs non-targeting control
Method: as §1, §2

[13] = test system: L363 multiple myeloma cell line; type: cell-based; conditions: 50 nM, 5 days, vs non-targeting control
Method: as §1, §2

[14] = test system: SW480 colon carcinoma cell line; type: cell-based; conditions: 50 nM, 5 days, vs non-targeting control
Method: as §1, §2

[15] = test system: SW1271 lung cancer cell line; type: cell-based; conditions: 50 nM, 5 days, vs non-targeting control
Method: as §1, §2

[16] = test system: U87-MG Glioblastoma cell line; type: cell-based; conditions: 50 nM, 5 days, vs non-targeting control
Method: as §1, §2

[17] = test system: U138-MG Glioblastoma cell line; type: cell-based; conditions: 50 nM, 5 days, vs non-targeting control
Method: as §1, §2

[18] = test system: H1299 lung cancer cell line; type: cell-based; conditions: 50 nM, 5 days, vs non-targeting control
Method: as §1, §2

MM485 melanoma cell line = type: cell-based; conditions: 50 nM, 5 days, vs non-targeting control
Method: as §1, §2

[19] = test system: WM3060 melanoma cell line; type: cell-based; conditions: 50 nM, 5 days, vs non-targeting control
Method: as §1, §2

[20] = test system: Sk-Mel-5 melanoma cell line; type: cell-based; conditions: 50 nM, 5 days, vs non-targeting control
Method: as §1, §2

[21] = test system: MM415RM trametinib resistant melanoma cell line; type: cell-based; conditions: 50 nM, 5 days, vs non-targeting control
From the text: (§3) Human melanoma cell line VMM39 was purchased from American Type Culture Collection (ATCC). Human melanoma cell lines D04, MM415, WM1366, WM3629, WM3211, Sk-Mel-2 and Sk-Mel-28 were a generous gift from Boris Bastian at the University of California, San Francisco. Primary human melanoma cell line Hs852.T was purchased from the Cell Culture Core Facility (CCCF) at the University of California, San Francisco. Primary human melanoma cell line AV5 was obtained from metastasis of a melanoma patient. All experimental protocols were approved by UCSF Human Research Protection Program Institutional Review Board (IRB #12-0948), all patients signed informed consent, and methods were carried out in accordance with relevant guidelines and regulations. Resistant cell lines DO4RM, MM415RM, Sk-Mel-2RM and WM3629RM were established as previously described. [Sanlorenzo, M. et al., The lincRNA MIRAT binds to IQGAPI and modulates the MAPK pathway in NRAS mutant melanoma. Sci Rep 8, 10902 (2018).] Primary human melanocytic cell lines (PHM) from infant foreskin of five healthy donors were available in our cell repository and pooled. Melanoma cell lines were maintained in RPMI 1640 media supplemented with 10% (vol/vol) heat inactivated fetal bovine serum. Melanocytes were maintained in M254 medium with HMGS supplements (1× final solution). All cell lines were incubated at 37° C. under 5% CO2.
as §1, §2

[22] = test system: Sk-Mel-2-RM trametinib resistant melanoma cell line; type: cell-based; conditions: 50 nM, 5 days, vs non-targeting control
From the text: as §3, §1, §2

[23] = test system: D04RM trametinib resistant melanoma cell line; type: cell-based; conditions: 50 nM, 5 days, vs non-targeting control
From the text: as §3, §1, §2

[24] = test system: WM3629RM trametinib resistant melanoma cell line; type: cell-based; conditions: 50 nM, 5 days, vs non-targeting control
From the text: as §3, §1, §2

[25] = test system: AV5 primary melanoma cell line; type: cell-based, human; conditions: 50 nM, 5 days (120 hrs), vs non-targeting control
Method: as §1, §2

[26] = test system: H82 lung cancer cell line; type: cell-based; conditions: 50 nM, 5 days, vs non-targeting control
Method: as §1, §2

Measured: cell viability decrease

GATCATTTAATTTGAC (QIAGEN GapmeR, modification pattern not given here) [SEQ ID NO: 18, Antisense oligonucleotide targeting RP11-7011.3-001, 002 and 003]
not listed: [25] | [26]
significant cell viability decrease: all other assays above

ATCATCTGGATTAGTG (chemistry not given here) [SEQ ID NO: 14, Antisense oligonucleotide targeting BX470102.3-008]
significant cell viability decrease: all assays above
